Measurements: patent publication US20240109930A1, “TRIAZOLYL-METHYL SUBSTITUTED ALPHA-D-GALACTOPYRANOSIDE DERIVATIVES” (Idorsia Pharmaceuticals Ltd, priority 2021, published 2024)

How the values were obtained:
human Gal-3 (hGal-3) = human Gal-3 (hGal-3) (Homo sapiens (Human), UniProt P17931); test: Competitive binding assay: biotinylated hGal-3 binding to microplate-adsorbed asialofetuin (ASF); conditions: IC50 values from several measurements given as geomean
In short: (§1)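 Biotinylated hGal-3 or hGal-1 (preferably cysteine-free Cys→Ser mutant), 300–1000 ng/mL, competes with compound for ASF-coated wells for 3 h at 4 °C. Bound lectin detected with streptavidin-peroxidase (80 ng/mL, 1 h, 4 °C) and ABTS by absorbance; IC50 reported as geomean of several runs.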

human Gal-1 (hGal-1) = human Gal-1 (hGal-1) (Homo sapiens, UniProt P09382, C131S/C17S/C43S/C61S/C89S); test: Competitive binding assay: biotinylated hGal-1 binding to microplate-adsorbed asialofetuin (ASF); conditions: IC50 values from several measurements given as geomean
In short: as §1

Chain of human Gal-3 (hGal-3) (P17931 whole entry): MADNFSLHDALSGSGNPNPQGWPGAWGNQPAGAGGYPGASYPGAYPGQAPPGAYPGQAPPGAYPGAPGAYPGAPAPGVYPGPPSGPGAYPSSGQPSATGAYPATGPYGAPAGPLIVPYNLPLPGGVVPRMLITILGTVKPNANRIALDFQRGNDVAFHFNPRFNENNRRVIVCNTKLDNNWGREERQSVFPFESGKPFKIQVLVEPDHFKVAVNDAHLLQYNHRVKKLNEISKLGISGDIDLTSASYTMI

## CO[C@@H]1[C@@H](n2cc(-c3ccc(C)c(F)c3F)nn2)[C@@H](O)[C@@H](CO)O[C@@H]1Cc1cn(C2[C@H]3CCC[C@@H]23)nn1 (some centres unmarked) [Ex 1.1.20.]
Human Gal-3 (hGal-3)
  IC50: 50 nM
Human Gal-1 (hGal-1)
  IC50: 3440 nM

## CO[C@@H]1[C@@H](n2cc(-c3ccc(Cl)c(F)c3F)nn2)[C@@H](O)[C@@H](CO)O[C@@H]1Cc1cn([C@H]2CCCC[C@@H]2F)nn1 [Example 2.1.81.D, (2R,3R,4S,5R,6R)-4-(4-(4-chloro-2,3-difluorophenyl)-1H-1,2,3-triazol-1-yl)-6-((1-((1S,2S)-2-fluorocyclohexyl)-1H-1,2,3-triazol-4-yl)methyl)-2-(hydroxymethyl)-5-methoxytetrahydro-2H-pyran-3-ol]
Human Gal-3 (hGal-3)
  IC50: 60 nM
Human Gal-1 (hGal-1)
  IC50: 2180 nM

## CO[C@@H]1[C@@H](n2cc(-c3ccc(F)c(F)c3F)nn2)[C@@H](O)[C@@H](CO)O[C@@H]1Cn1cc(C2CCCC2)nn1 [Ex 3.2.32.]
Human Gal-3 (hGal-3)
  IC50: 60 nM
Human Gal-1 (hGal-1)
  IC50: 1150 nM

## CO[C@@H]1[C@@H](n2cc(-c3ccc(Cl)c(F)c3F)nn2)[C@@H](O)[C@@H](CO)O[C@@H]1Cc1cn(C23CCOC(C)(C2)C3)nn1 [Ex 2.1.62., (2R,3R,4S,5R,6R)-4-(4-(4-chloro-2,3-difluorophenyl)-1H-1,2,3-triazol-1-yl)-2-(hydroxymethyl)-5-methoxy-6-((1-(1-methyl-2-oxabicyclo[3.1.1]heptan-5-yl)-1H-1,2,3-triazol-4-yl)methyl)tetrahydro-2H-pyran-3-ol]
Human Gal-3 (hGal-3)
  IC50: 30 nM
Human Gal-1 (hGal-1)
  IC50: 1200 nM

## CO[C@@H]1[C@@H](n2cc(-c3ccc(Cl)c(F)c3F)nn2)[C@@H](O)[C@@H](CO)O[C@@H]1Cc1cn([C@H]2CCOC[C@H]2F)nn1 [Example 2.1.66.B, (2R,3R,4S,5R,6R)-4-(4-(4-chloro-2,3-difluorophenyl)-1H-1,2,3-triazol-1-yl)-6-((1-((3S,4S)-3-fluorotetrahydro-2H-pyran-4-yl)-1H-1,2,3-triazol-4-yl)methyl)-2-(hydroxymethyl)-5-methoxytetrahydro-2H-pyran-3-ol]
Human Gal-3 (hGal-3)
  IC50: 40 nM
Human Gal-1 (hGal-1)
  IC50: 2900 nM

## CO[C@@H]1[C@@H](n2cc(-c3ccc(F)c(F)c3F)nn2)[C@@H](O)[C@@H](CO)O[C@@H]1Cc1cn(C2(CO)CCCC2)nn1 [Ex 3.1.5.]
Human Gal-3 (hGal-3)
  IC50: 60 nM
Human Gal-1 (hGal-1)
  IC50: 600 nM

## CO[C@@H]1[C@@H](n2cc(-c3ccc(Cl)c(F)c3F)nn2)[C@@H](O)[C@@H](CO)O[C@@H]1Cc1cn(C2(C(F)(F)F)CCOCC2)nn1 [Ex 2.1.72., (2R,3R,4S,5R,6R)-4-(4-(4-chloro-2,3-difluorophenyl)-1H-1,2,3-triazol-1-yl)-2-(hydroxymethyl)-5-methoxy-6-((1-(4-(trifluoromethyl)tetrahydro-2H-pyran-4-yl)-1H-1,2,3-triazol-4-yl)methyl)tetrahydro-2H-pyran-3-ol]
Human Gal-3 (hGal-3)
  IC50: 50 nM
Human Gal-1 (hGal-1)
  IC50: 480 nM

## CO[C@@H]1[C@@H](n2cc(-c3ccc(Br)c(F)c3F)nn2)[C@@H](O)[C@@H](CO)O[C@@H]1Cn1cc(C23CCC(N)(CC2)CC3)nn1 [Ex 4.2.39.]
Human Gal-3 (hGal-3)
  IC50: 60 nM
Human Gal-1 (hGal-1)
  IC50: 2190 nM

## CO[C@@H]1[C@@H](n2cc(-c3ccc(Cl)c(F)c3F)nn2)[C@@H](O)[C@@H](CO)O[C@@H]1Cc1cn(C23CC(C2)C3)nn1 [Ex 2.1.12.]
Human Gal-3 (hGal-3)
  IC50: 50 nM
Human Gal-1 (hGal-1)
  IC50: 3250 nM

## CO[C@@H]1[C@@H](n2cc(-c3ccc(F)c(F)c3F)nn2)[C@@H](O)[C@@H](CO)O[C@@H]1Cc1cn(C23CC(C(F)(F)F)(C2)C3)nn1 [Ex 3.1.24.]
Human Gal-3 (hGal-3)
  IC50: 90 nM
Human Gal-1 (hGal-1)
  IC50: 2080 nM
